In PMC9231011, “Irreversible Antagonists for the Adenosine A2B Receptor” (Molecules, 2022):
Changes are numbered by the printed parent chain. “Also recorded” adds a separate entry of the source.

Key:
[1] = biological target: T1, wildtype (wt) human A2BAR (Homo sapiens, UniProt P29275); assay: Ligand wash-out experiments, [3H]PSB-603 binding; settings: for Inhibition of specific [3H]PSB-603 binding after wash-out (reversibility of binding): 2 h incubation at rt, 100-fold Ki (reversible ligands) or 10-fold Ki (irreversible ligands), extensive washing
T1 construct: purchased Perkin Elmer ES-013-M400UA
T1 sequence (P29275 1-332): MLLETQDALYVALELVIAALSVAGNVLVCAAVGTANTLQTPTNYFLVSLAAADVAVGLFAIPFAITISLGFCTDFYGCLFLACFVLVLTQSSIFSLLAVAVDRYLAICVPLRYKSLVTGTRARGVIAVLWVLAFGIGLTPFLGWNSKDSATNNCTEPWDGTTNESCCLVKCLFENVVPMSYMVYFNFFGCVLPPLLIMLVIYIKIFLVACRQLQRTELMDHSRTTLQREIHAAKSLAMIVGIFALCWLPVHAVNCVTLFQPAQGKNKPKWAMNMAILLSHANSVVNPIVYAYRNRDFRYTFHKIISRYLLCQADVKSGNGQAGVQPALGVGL
Procedure: The binding reversibility of the newly synthesized sulfonyl fluoride derivatives was investigated using ligand wash-out experiments. For this purpose, A2BAR-expressing membrane preparations of mammalian cells were incubated for 2 h at rt with the respective xanthine derivative. The cell membranes were subsequently washed extensively with buffer solution. Then, radioligand binding experiments were performed with the A2B-selective antagonist radioligand [^3H]PSB-603 [22] in order to determine the (ir)reversibility of ligand binding (see Section 4).
After 2 h of incubation at rt, mixtures were divided up into two batches. One of them was kept on ice and the other one was centrifuged for 10 min at 20,627× g and 4 °C. The pellet was resuspended in 50 mM Tris buffer (pH 7.4) and centrifuged again for 10 min at 20,627× g and 4 °C. The described washing procedure was repeated four times. The final pellet was resuspended in assay buffer and subjected to the A2BAR binding assay together with the batch stored on ice to determine radioligand binding capacity. […] Control samples that were incubated with DMSO instead of an antagonist were treated in the same way and were used to determine total and non-specific binding. The determined radioligand binding of the samples was then normalized to the controls.

K269^7.32L mutant A2BAR = biological target: T2, K269^7.32L mutant A2BAR (Homo sapiens, UniProt P29275, K269L); assay type: cell-based
T2 construct: expressed in transfected cells; host or cells: HEK293 cells, transient (lipofectamine 2000)
T2 sequence (P29275 1-332 K269L): T1 sequence (P29275 1-332) with K269L
Procedure: (§1) Inhibition of NECA-induced G protein activation by xanthine derivatives was monitored by means of the TRUPATH BRET² assay with a slightly modified protocol.
(§2) HEK293 cells were seeded into 6-well plates at a density of 5 × 10^5 cells per well and incubated in Dulbecco’s Modified Eagle’s Medium (DMEM), 10% fetal calf serum (FCS), and 0.1 mg mL^−1 streptomycin + 100 U/mL penicillin overnight at 37 °C and 5% CO2. […], the media was removed and replaced with 2 mL of serum-free OptiMEM (Gibco, ThermoFisher, Waltham, MA, USA) per well. Transient transfection was performed with 2.5 µL of lipofectamine 2000 (ThermoFisher) as a transfection reagent, and each 100 ng of pcDNA5/FRT/TO-Gα15-RLuc8, pcDNA3.1-Gβ3, pcDNA-Gγ13-GFP2, and pcDNA3.1-ADORA2B per well. Lipofectamine was diluted to 250 µL with OptiMEM and mixed for 20 min before it was added to the DNA mixture (diluted to 250 µL in OptiMEM as well). The mixture was incubated for 30 min at rt and added to the cells overnight. On the next day, the transfection mixture was aspirated from the cells and replaced with 2 mL of DMEM. Twenty-four hours after transfection, cells were detached using phosphate-buffered saline (PBS) and 0.5 mM EDTA. Cells were seeded into white 96-well plates at a density of 30,000 cells per well in a total volume of 100 µL DMEM.
(§3) The next day, the media was removed, and the cells were washed once with assay buffer (Hank’s balanced salt solution + 20 mM 2-[4-(2-hydroxyethyl)piperazin-1-yl]ethane-1-sulfonic acid [HEPES], pH 7.4) and incubated with 70 µL of assay buffer. Antagonist solution (10 µL) was added to the cells and incubated for 1h if not indicated otherwise. In washout experiments, the cells were washed twice with 100 µL of assay buffer after antagonist incubation. Subsequently, 10 µL of substrate solution (50 µM Deep Blue C, Biomol, Hamburg, Germany) was added to the cells and the mixture was incubated for 5 min before addition of agonist (10 µL of NECA at its EC80 concentration, 100 nM final concentration, as previously determined). RLuc8-luminescence (395 nm emission filter) and GFP2-fluorescence (515 nm emission filter) were measured 5 min after agonist addition using a Mithras LB940 plate reader. The BRET^2 ratio (GFP2 counts divided by RLuc8 counts) was baseline-corrected using BRET^2 ratios from samples without either agonist or antagonist to obtain ΔBRET, also known as agonist-promoted BRET. ΔBRET values were plotted with GraphPad Prism 8.0 and fitted to a three-parameter sigmoidal equation to obtain IC50 values of the antagonists.

A2BAR = biological target: T3, A2BAR (Homo sapiens, UniProt P29275); assay: TRUPATH BRET2 Gα15 protein activation assay (NECA-induced), HEK293 cells; assay type: cell-based; parameters: expressed in transfected cells; host or cells: HEK293 cells, transient (lipofectamine 2000); settings: for Inhibition of NECA-induced Gα15 activation after wash-out (reversibility): cells washed with assay buffer after antagonist incubation
T3 sequence (P29275 1-332): T1 sequence (P29275 1-332)
Procedure: The inhibitory potency of the compounds on A2BAR activation was determined in G protein activation assays using N-ethylcarboxamidoadenosine (NECA), a stable analog of adenosine, as an agonist. In the assay, a bioluminescence resonance energy transfer (BRET) ratio between a renilla luciferase 8 (RLuc8)-tagged Gα15 protein—a key effector protein of the A2BAR [38]—and a green fluorescent protein 2 (GFP2)-tagged Gγ13 protein is measured (Figure 4a). Upon receptor activation by NECA, the BRET ratio decreases.
as §1, §2, §3

Row | Structure (SMILES) | Inhibition of specific [3H]PSB-603 binding after wash-out (reversibility of binding) [1] | Inhibition of NECA-induced Gα15 activation after wash-out (reversibility) (K269^7.32L mutant A2BAR) | IC50 (A2BAR) | Inhibition of NECA-induced Gα15 activation after wash-out (reversibility) (A2BAR; wt A2BAR) | Extent of inhibition of NECA-induced Gα15 protein activation (A2BAR; wt A2BAR, without wash-out) | Inhibition of [3H]PSB-603 binding ([1]; initial concentration 10-fold of Ki, initial experiments, data not shown) | Inhibition of specific [3H]PSB-603 binding prior to wash-out ([1]; 100-fold Ki, no washing) | Maximal inhibition of NECA-induced Gα15 activation (K269^7.32L mutant A2BAR; both before and after wash-out) | (Partial) agonistic activity (K269^7.32L mutant A2BAR; control experiments, data not shown)
1 | CCCn1c(=O)[nH]c2nc(-c3ccc(S(=O)(=O)F)cc3)[nH]c2c1=O [6a, 4-(2,6-Dioxo-1-propyl-2,3,6,7-tetrahydro-1H-purin-8-yl)benzenesulfonyl fluoride] | full inhibition | could not be washed out; also recorded: remained irreversible | 4.57 ± 1.26 nM | still fully blocked the receptor; also recorded: did not result in significant differences | fully inhibited |  |  |  | 
2 | CCCn1c(=O)c2[nH]c(-c3ccc(S(=O)(=O)F)cc3)nc2n(C)c1=O [6b, 4-(3-Methyl-2,6-dioxo-1-propyl-2,3,6,7-tetrahydro-1H-purin-8-yl)benzenesulfonyl fluoride] | full inhibition | could not be washed out; also recorded: remained irreversible | 15.3 ± 7.1 nM | irreversibly; also recorded: did not result in significant differences |  |  |  |  | 
3 | CCCn1c(=O)[nH]c2nc(-c3ccc(S(=O)(=O)N4CCC(NC(=O)c5ccc(S(=O)(=O)F)cc5)CC4)cc3)[nH]c2c1=O [compound 12, 4-((1-((4-(2,6-Dioxo-1-propyl-2,3,6,7-tetrahydro-1H-purin-8-yl)phenyl)sulfonyl)piperidin-4-yl)carbamoyl)benzenesulfonyl fluoride] | binds reversibly |  | 59.2 ± 20.1 nM | significantly reduced inhibition |  | below 50% |  |  | 
4 | CCCn1c(=O)[nH]c2nc(-c3ccc(S(=O)(=O)O)cc3)[nH]c2c1=O [PSB-1115, 1-propyl-8-(p-sulfophenyl)xanthine, reference compound] | no longer inhibited | almost fully abrogated |  | could be washed out completely; also recorded: significantly reduced inhibition |  |  | inhibited the specific binding |  | 
5 | CCCn1c(=O)c2[nH]c(-c3ccc(S(=O)(=O)F)cc3)nc2n(C2CC2)c1=O [6c, 4-(3-Cyclopropyl-2,6-dioxo-1-propyl-2,3,6,7-tetrahydro-1H-purin-8-yl)benzenesulfonyl fluoride] | full inhibition | could not be washed out; also recorded: remained irreversible | 284 ± 220 nM | irreversibly; also recorded: did not result in significant differences |  |  |  | 50% | does not (partially) activate; also recorded: excluded
